Test results published in article PMC7566913, “Dual Gene Delivery Reagents From Antiproliferative Alkylphospholipids for Combined Antitumor Therapy” (Frontiers in Chemistry, 2020).
Read-outs that look alike come from different tables or passages of the source.

How the values were obtained:
H292 cells [1] = system: H292 cells; design: method as in Gaillard et al., 2019; settings: H292, 24 h at 37°C, MTT assay; ref Gaillard et al., 2019; cited from earlier work
[2] = design: method as in Gaillard et al., 2019; settings: pyrene fluorescence, ref Gaillard et al., 2019, cited from earlier work
16HBE cells [3] = system: 16HBE cells; design: method as in Gaillard et al., 2019; settings: 24 h at 37°C, MTT assay, ref Gaillard et al., 2019; cited from earlier work
A549 cells [4] = system: A549 cells; design: method as in Gaillard et al., 2019; settings: A549, 24 h at 37°C, MTT assay; ref Gaillard et al., 2019; cited from earlier work
sheep RBC [5] = settings: cited from earlier work
16HBE cells [6] = assay: Cytotoxicity, MTT assay, 16HBE; assay type: cell-based, human; settings: 24 h at 37°C
Description: (§1) The cells were exposed for a 24-h period to increasing concentration of the pro-APLs, ranging from 500 nM to 1 mM, and cell viability was assessed using the MTT colorimetric assay (Mosmann, [1983]). For the three cell lines, viability decreased in a dose-dependent manner in response to APLs and pro-APLs (Supplementary Figures 2–4). Using the best-fit regression curve method, the IC50 value (concentration that provokes 50% inhibition of the cell growth) was calculated for each compound (Table 4). The three cell lines responded to the compounds with varying sensitivities. […] This is attributed to enzyme-mediated hydrolysis of the pro-APL compounds in the complemented culture medium or in the intracellular compartment, competing with pure pH-controlled chemical hydrolysis. According to its structure, a pro-APL may or not be a substrate for specific lipases and, thus, may or not be hydrolyzed into the parent cytotoxic compound. […]
(§2) At confluency, cells were released […]
(§3) Cells were seeded into 96-well plates (Becton-Dickinson) at the required density (vide supra) in 100 µL of serum containing culture medium. […]
(§4) Mitochondrial activity measurements (MTT assay) was used to assess cytotoxicity of the compounds.
(§5) Lipid samples were prepared from a lipid film (3.6 µmol of compound evaporated from an ethanolic solution) hydrated with aqueous glucose 5 % and vigorously vortexed for 20 s before serial dilution in aqueous glucose 5 %. For addition of lipid samples to cell culture, part of the culture medium in the culture plates prepared the day before (25 µL) was removed and replaced by lipid samples (25 µL). Negative control was obtained by adding glucose 5 % to the cells instead of lipoplexes.
(§6) After a 24-h incubation period at 37 °C, culture supernatant was removed, cells were carefully washed with PBS and MTT (100 µL, 0.5 mg/mL) in complete culture medium was added. After a 1-h incubation period at 37 °C, the MTT sol ution was removed and DMSO (100 µL) was added to lyse cells and dissolve reduced MTT. Intensity of MTT reduction was then evaluated by measuring absorbance at 492 nm. Viability of cells treated with lipids or lipoplexes was expressed as the percentage of the absorbance measured in untreated cells. Value for each sample is the mean of triplicate determinations (± SD). IC50 values were determined within the 95 % confidence interval using nonlinear regression analysis with the GraphPad Prism software (GraphPad Software, San […]
(§7) All data are representative of a triplicate determination and are presented as the mean ± SD.
(§8) Statistical significance between treatments was assessed by one-way analysis of variance (ANOVA) followed by the Dunnett multiple comparison test, using the Kaleidagraph 4.5 software (Synergy Software, Reading, PA, USA). Data were considered as statistically significant for p value less than

A549 cells [7] = assay: Cytotoxicity, MTT assay, A549; assay type: cell-based, human; settings: A549, 24 h at 37°C
Description: as §1, §2, §3, §4, §5, §6, §7, §8

[8] = Particle size and zeta potential of lipoplexes by DLS; assay type: physicochemical; settings: lipoplexes with pCMV-Gluc, 25 °C, 5 % glucose, N/P 3, 1 molar equivalent of DOPE
Excerpt: The capacity of the pro-APLs to interact electrostatically with nucleic acids and form lipoplexes was checked by standard agarose gel electrophoresis. […] The size (hydrodynamic diameter) and charge (zeta potential, ζ) of the lipoplexes prepared at an N/P ratio of 3 with one molar equivalent of dioleoyl-sn-glycero-3-phosphatidylethanolamine (DOPE), a lipid with fusogenic properties (Hui et al., [1996]; Zuhorn et al., [2005]), were investigated by DLS (Supplementary Table 1).
as measured by DLS. Lipoplexes were prepared at 25 °C, in 5 % glucose, at a N/P ratio of 3 and with
1 molar equivalent of DOPE.
(Gaillard et al., 2019). Data are the mean of three independent measurements (± SD).

[9] = CMC/CAC by pyrene fluorescent probe technique in ultrapure water; assay type: physicochemical; settings: pyrene fluorescence
Description: The pro-APL molecules have been specifically engineered so they can be metabolized in situ under a biological stimulus to revert to the parent APL with antiproliferative activity. […] We thus aimed to determine the self-assembly properties of the APL prodrugs. […] Pyrene is a probe which fluorescence is sensitive to the polarity of the solubilizing medium. […] Fluorescence measurements were carried out in ultrapure water and data obtained for the various APLs and their prodrugs are shown in Table 2.
Pro-APLs Self-Assembly Properties
Starting from a lipid film, compounds were […]

H292 cells [10] = assay: Cytotoxicity, MTT assay, H292; assay type: cell-based, human
Description: as §1, §2, §3, §4, §5, §6, §7, §8

[11] = design: method as in Gaillard et al., 2019; settings: ref Gaillard et al., 2019, cited from earlier work
[12] = design: method as in Gaillard et al., 2019; settings: lipoplexes with pCMV-Gluc, N/P 3, 1 molar equivalent of DOPE; ref Gaillard et al., 2019; cited from earlier work
sheep RBC [13] = assay: Hemolytic activity, red blood cell leakage assay; settings: 37°C
Description: To evaluate this hypothesis, the hemolytic activity of the APLs and pro-APLs was measured. Sheep RBC were incubated for 1 h with escalating doses of aqueous dispersion of the compounds at 37°C. At the end of the incubation period, hemoglobin leakage was determined spectrophotometrically.
Thus, in order to better characterize the hemolytic effect of the pro-APLs, the incubation period has been extended and release of hemoglobin was measured after 24 h.
Red blood cell (RBC) leakage assay was carried out according to a previously described procedure
(Evans et al, 2013). RBC were prepared from defibrinated sheep blood. Briefly, blood sample (5 mL) was centrifuged at 500 x g for 5 min. After removal of the yellow upper layer, an equal volume of

[14] = Hydrolytic stability of the APL prodrugs monitored by 31P-NMR; assay type: physicochemical; settings: for half-life: extrapolated from the experimental data, read-out: t1/2 (time needed for 50% hydrolysis) (converted); for Hydrolytic stability after extended incubation: pH 7.4 and pH 4.5, 31 days at 25°C
Excerpt: Aqueous formulation of the APL prodrugs produces nanosized lipid aggregates that most likely enter cells through the endocytosis pathway. To produce the expected intrinsic antineoplastic effect, APL-derived phosphotriesters need to be processed into the bioactive parent APLs. The hydrolysis of the prodrugs may be under the control of a chemical stimulus, e.g., a pH decrease as observed during the maturation of endosomes, or of degradation enzymes that massively enter the endosome compartment when continuing to lysosomes. To get some information on the transformation of pro-APLs into APLs, we monitored the hydrolysis of these compounds over time, at pH 7.4 and 4.5, conditions that mimick the extracellular milieu and the environment of the late endosome, respectively. This monitoring was realized using ^31P-NMR spectroscopy, according to a previously reported method (Pierrat et al., [2013b]). Whatever the compound investigated, only one single ^31P resonance did appear during the course of the experiments, corresponding to that of the parent APL. This confirmed that hydrolysis of the pro-APLs selectively occurred at the acetal center. […] As a general trend, hydrolysis of the pro-APLs was […] under neutral conditions (i.e., pH 7.4) than under acidic ones (i.e., pH 4.5). […] Besides, substitution of one hydrogen atom with a methyl group on the acetal bridge accelerated the rate of hydrolysis of the prodrugs. […] Indeed, in biological media, the enzyme-mediated hydrolysis of such compounds can proceed far quicker than “simple” chemical hydrolysis under pH control (Pierrat et al., [2012]). […]

[15] = Homo sapiens, NCI-H292, H292, 24 h at 37°C
[16] = HEPES buffer with Triton X-100, pH 7.4
[17] = potassium acetate/acetic acid buffer with Triton X-100, pH 4.5

Row | Molecule | IC50 (16HBE cells [6]; Homo sapiens) [µM] | IC50 (A549 cells [7]; Homo sapiens) [µM] | Particle size of lipoplexes [8] [nm] | CMC (APLs) / CAC (pro-APLs) [9] [µM] | IC50 (H292 cells [10]; [15]) [µM] | HA200 (hemolytic activity at 200 μM) (sheep RBC [13]; 24 h) [%] | H120 (hydrolysis rate after a 120-h incubation period) ([14]; pH 4.5) [%] | H120 (hydrolysis rate after a 120-h incubation period) ([14]; pH 7.4) [%] | also measured
1 | Erufosine [reference compound] | – | – | – | – | – | – | – | – | IC50 (H292 cells [1]): 46 ± 8 µM; CMC (APLs) / CAC (pro-APLs) [2]: 1.6 ± 0.5 µM; CMC (APLs) / CAC (pro-APLs) ([2]; listed as erufosine): 1.6 µM; IC50 (16HBE cells [3]): 19 ± 3 µM; IC50 (A549 cells [4]): 57 ± 8 µM; HA200 (hemolytic activity at 200 μM) (sheep RBC [5]): 84.9 ± 4.5%
2 | CCCCCCCC/C=C\CCCCCCCCOP(=O)(OCCC[N+](C)(C)C)OCOC(=O)OCCCCCCCCCCCC.[Cl-] (stereo not drawn) [PC18:1, 3-((((((Dodecyloxy)carbonyl)oxy)methoxy)(oleyloxy)phosphoryl)oxy)-N,N,N-trimethylpropan-1-aminium chloride] | 207 ± 49 | 273 ± 69 | 489 ± 130 | 2.3 ± 1.0 | 186 ± 42 | – | – | – | –
3 | CCCCCCCC/C=C\CCCCCCCCCCCCOP(=O)(OCCC[N+](C)(C)C)OC(C)OC(=O)CCCCCCCCCCC (stereo not drawn) [E E^′12] | – | – | – | – | – | – | – | – | IC50 (H292 cells [1]): 73 ± 15 µM; CMC (APLs) / CAC (pro-APLs) [2]: 1.1 ± 0.7 µM; IC50 (16HBE cells [3]): 63 ± 7 µM; H120 (hydrolysis rate after a 120-h incubation period) ([11]; pH 4.5): 53%; t1/2 (time needed for 50% hydrolysis) ([11]; pH 4.5): 104 h; H120 (hydrolysis rate after a 120-h incubation period) ([11]; pH 7.4): 56%; t1/2 (time needed for 50% hydrolysis) ([11]; pH 7.4): 96 h; Particle size of lipoplexes [12]: 149 ± 15 nm; IC50 (A549 cells [4]): 192 ± 44 µM; HA200 (hemolytic activity at 200 μM) (sheep RBC [5]; sheep RBC, 24 h, 37°C, ref Gaillard et al., 2019): 25.3 ± 2.6%
4 | CCCCCCCCCCCCCCCCCCOP(=O)(OC1CC[N+](C)(C)CC1)OC(C)OC(=O)CCCCCCCCCCC.[Cl-] (stereo not drawn) [P E^′12, 4-(((1-(Dodecanoyloxy)ethoxy)(octadecyloxy)phosphoryl)oxy)-1,1-dimethylpiperidin-1-ium chloride] | 60 ± 5 | 148 ± 38 | 610 ± 54 | 2.3 ± 1.4 | 116 ± 25 | 80.1 ± 0.2 | 60 | 60 | half-life [14, 16]: 84 h; half-life [14, 17]: 90 h
5 | CCCCCCCCCCCCCCCCOP(=O)(OCCCCCCCCCCCC)OCC[N+](C)(C)C (stereo not drawn) [Compound M12, 2-(((Dodecyloxy)(hexadecyloxy)phosphoryl)oxy)-N,N,N-trimethylethan-1-aminium triflate] | 107 ± 14 | 46 ± 11 | 121 ± 13 | 1.1 ± 0.6 | 56 ± 7 | 63.9 ± 8.1 | 0 | 0 | HA200 (hemolytic activity at 200 μM) (sheep RBC [13]; 1 h): 13.1 ± 1.0%; Hydrolytic stability after extended incubation [14]: fully stable
6 | 3-((((((Dodecyloxy)carbonyl)oxy)methoxy)(hexadecyloxy)phosphoryl)oxy)-N,N,N-trimethylpropan-1- aminium chloride [MC12] | – | – | 186 ± 48 | 4.1 ± 2.5 | – | – | 3 | 11 | IC50 (16HBE cells [6]): 62 ± 15 µM; IC50 (A549 cells [7]): 151 ± 42 µM; IC50 (H292 cells [10]; H292, 24 h at 37°C): 81 ± 29 µM
7 | 3-((((((Dodecyloxy)carbonyl)oxy)methoxy)(octadecyloxy)phosphoryl)oxy)-N,N,N-trimethylpropan-1-aminium chloride [PC12] | – | – | 576 ± 41 | 4.5 ± 1.6 | – | – | 6 | 6 | IC50 (16HBE cells [6]): 82 ± 33 µM; IC50 (A549 cells [7]): 89 ± 24 µM; IC50 (H292 cells [10]; H292, 24 h at 37°C): 73 ± 17 µM
8 | CCCCCCCCCCCCCCCCOP(=O)(OCC[N+](C)(C)C)OC(C)OC(=O)CCCCCCCCCCC.[Cl-] (stereo not drawn) [M E^′12, 2-(((1-(Dodecanoyloxy)ethoxy)(hexadecyloxy)phosphoryl)oxy)-N,N,N-trimethylethan-1-aminium chloride] | 49 ± 6 | 139 ± 32 | 86 ± 3 | 1.3 ± 0.7 | 59 ± 10 | 101.7 ± 1.8 | 91 | 89 | half-life [14, 16]: 18 h; half-life [14, 17]: 17 h
9 | CCCCCCCCCCCCCCCCCCOP(=O)(OCCCCCCCCCCCC)OC1CC[N+](C)(C)CC1.[Cl-] (stereo not drawn) [Compound P12, 4-(((Dodecyloxy)(octadecyloxy)phosphoryl)oxy)-1,1-dimethylpiperidin-1-ium chloride] | 72 ± 7 | 56 ± 7 | 348 ± 43 | 1.2 ± 0.4 | 63 ± 5 | 35.7 ± 4.1 | 0 | 0 | HA200 (hemolytic activity at 200 μM) (sheep RBC [13]; 1 h): 8.1 ± 0.9%; Hydrolytic stability after extended incubation [14]: fully stable
